Results: patent US8269000B2, “Substituted pyrimidine and triazine compounds” (Gruenenthal GmbH, priority 2008, dated 2012)

Molecular target: T1, rat B1R (Rattus norvegicus, UniProt P97583)
T1 construct: expressed in transfected cells; host or cells: CHO K1 cells
T1 sequence (P97583 1-337): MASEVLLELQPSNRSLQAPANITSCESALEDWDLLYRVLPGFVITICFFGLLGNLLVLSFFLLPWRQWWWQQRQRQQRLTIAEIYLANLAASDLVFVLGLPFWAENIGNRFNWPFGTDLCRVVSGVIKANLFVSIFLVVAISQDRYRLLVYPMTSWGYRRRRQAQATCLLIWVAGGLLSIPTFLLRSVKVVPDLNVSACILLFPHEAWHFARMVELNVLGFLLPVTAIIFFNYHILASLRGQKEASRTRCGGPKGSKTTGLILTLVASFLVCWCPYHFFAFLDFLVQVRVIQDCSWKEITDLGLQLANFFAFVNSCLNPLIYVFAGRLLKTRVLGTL
Assay: FLIPR Ca2+ functional study on bradykinin receptor 1 (rB1R CHO K1 cells)
Format: cell-based
Conditions: % inhibition rat B1R at 10 μM
Summary of the method: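 CHO K1 cells stably expressing human or rat B1R were loaded with Fluo-4 and read on FLIPR (ex 488/em 540 nm, peak counts). Test compound (10 μM, or a concentration range for IC50) was added first for % activation versus control agonist; after 10-20 min, EC80 Lys-Des-Arg9-bradykinin (human) or Des-Arg9-bradykinin (rat) was added, giving % inhibition of maximum. n=2-3, N≥2.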

Compound	% inh. (rat B1R) 10 μM [%]
COc1cc(C)c(S(=O)(=O)N(C)C(COc2nccc(N3CCC(c4nc(-c5ccncc5)no4)CC3)n2)c2ccccc2)c(C)c1 (centres unmarked) [G_CC-134]	88
COc1cc(C)c(S(=O)(=O)N2CCCC(Oc3nccc(N4CCC(CCN5CCCCC5)CC4)n3)C2)c(C)c1 (centres unmarked) [G_CC-027]	63
COc1cc(C)c(S(=O)(=O)N2CCCCC2COc2ccnc(N3CCN(c4ccncc4)CC3)n2)c(C)c1 (centres unmarked) [H_CC-005, 4-[[1-(4-methoxy-2,6-dimethylphenyl)sulfonyl-2-pipendinyl]methoxy]-2-[4-(4-pyridyl)-1-piperazinyl]pyrimidine]	94

Same assay, conditions: CHO-K1, % inhibition rat B1R at 10 μM, read-out: % inh. (rat B1R) 10 μM

Compound	inhibition at 10 µM [%]
COc1cc(C)c(S(=O)(=O)N(C)C(COc2nccc(N3CCC(CCCN4CCCC4)(c4cccnc4)CC3)n2)c2ccccc2)c(C)c1 (centres unmarked) [G_CC-108, 4-methoxy-N,2,6-trimethyl-N-[1-phenyl-2-[4-[4-pyridin-3-yl-4-(3-pyrrolidin-1-yl-propyl)-piperidin-1-yl]-pyrimidin-2-yl]oxy-ethyl]-benzenesulfonic acid amide]	102
COc1cc(C)c(S(=O)(=O)N(C)CCOc2nccc(N3CCC4(CCN(Cc5ccccc5)C4=O)CC3)n2)c(C)c1 [G_CC-046, N-[2-[[4-(3-benzyl-4-oxo-3,8-diazaspiro[4.5]decan-8-yl)-2-pyrimidinyl]oxy]ethyl]-4-methoxy-N,2,6-trimethylbenzenesulfonamide]	96
COc1cc(C)c(S(=O)(=O)N2CCCCC2COc2nccc(N3CCN(c4ccc(F)cc4)CC3)n2)c(C)c1 (centres unmarked) [G_CC-010, 4-[4-(4-fluorophenyl)-1-piperazinyl]-2-[[1-(4-methoxy-2,6-dimethylphenyl)sulfonyl-2-piperidinyl]methoxy]pyrimidine]	70
COc1cc(C)c(S(=O)(=O)N2CCCCC2COc2ccnc(N3CCC(Oc4ccccn4)CC3)n2)c(C)c1 (centres unmarked) [H_CC-079, 4-[[1-[(4-methoxy-2,6-dimethyl-phenyl)sulfonyl]-piperidin-2-yl]-methoxy]-2-(4-pyridin-2-yloxy-piperidin-1-yl)-pyrimidine]	73
COc1cc(C)c(S(=O)(=O)N2CCCCC2COc2nccc(N3CCC(Oc4ccccn4)CC3)n2)c(C)c1 (centres unmarked) [G_CC-078, 2-[[1-[(4-methoxy-2,6-dimethyl-phenyl)sulfonyl]-piperidin-2-yl]-methoxy]-4-(4-pyridin-2-yloxy-piperidin-1-yl)-pyrimidine]	98
COc1cc(C)c(S(=O)(=O)N2CCCC(Oc3ccnc(N4CCC(c5ccccc5)(N(C)C)CC4)n3)C2)c(C)c1 (centres unmarked) [H_CC-064, [1-[4-[1-[(4-methoxy-2,6-dimethyl-phenyl)sulfonyl]-piperidin-3-yl]oxy-pyrimidin-2-yl]-4-phenyl-piperidin-4-yl]-dimethyl-amine]	61
COc1cc(C)c(S(=O)(=O)N2c3ccccc3C[C@H]2COc2nccc(N(C)CCN3CCC(c4ccccc4)(N(C)C)CC3)n2)c(C)c1 [G_CC-094, 2-(4-dimethylamino-4-phenyl-piperidin-1-yl)-ethyl-[2-[[(2S)-1-[(4-methoxy-2,6-dimethyl-phenyl)sulfonyl]-2,3-dihydro-1H-indol-2-yl]-methoxy]-pyrimidin-4-yl]-methyl-amine]	102
COc1cc(C)c(S(=O)(=O)N2CCCCC2COc2ccnc(N3CCN(C)CC3)n2)c(C)c1 (centres unmarked) [H_CC-003, 4-[[1-(4-methoxy-2,6-dimethylphenyl)sulfonyl-2-piperidinyl]methoxy]-2-(4-methyl-1-piperazinyl)pyrimidine]	58
O=S(=O)(c1cccc(C(F)(F)F)c1)N(CCCc1ccnc(N2CCC3(CCN(c4ccncc4)CC3)CC2)n1)C1CC1 [Example I-008, N-cyclopropyl-N-[3-[2-(9-pyridin-4-yl-3,9-diazaspiro[5.5]undecan-3-yl)-pyrimidin-4-yl]-propyl]-3-(trifluoromethyl)-benzenesulfonic acid amide]	94
COc1cc(C)c(S(=O)(=O)N(C)C(COc2nccc(N3[C@@H]4CC[C@H]3CC(Oc3cccnc3)C4)n2)c2ccccc2)c(C)c1 (stereo partly drawn) [G_CC-107, 4-methoxy-N,2,6-trimethyl-N-[1-phenyl-2-[4-[(1S,5R)-3-pyridin-3-yloxy-8-azabicyclo[3.2.1]octan-8-yl]-pyrimidin-2-yl]oxy-ethyl]-benzenesulfonic acid amide]	94
COc1cc(C)c(S(=O)(=O)N2CCCCC2COc2ccnc(N(C)CCN3CCC(c4ccccc4)(N4CCCC4)CC3)n2)c(C)c1 (centres unmarked) [H_CC-063, [4-[[1-[(4-methoxy-2,6-dimethyl-phenyl)sulfonyl]-piperidin-2-yl]-methoxy]-pyrimidin-2-yl]-methyl-[2-(4-phenyl-4-pyrrolidin-1-yl-piperidin-1-yl)-ethyl]-amine]	82
COc1cc(C)c(S(=O)(=O)N(C)CCOc2ccnc(N3CCCC3Cc3ccccn3)n2)c(C)c1 (centres unmarked) [H_CC-087, 4-methoxy-N,2,6-trimethyl-N-[2-[2-[2-(pyridin-2-yl-methyl)-pyrrolidin-1-yl]-pyrimidin-4-yl]oxy-ethyl]-benzenesulfonic acid amide]	57
COc1cc(C)c(S(=O)(=O)N2CCCCC2COc2ccnc(N3CCC(CNC(=O)c4ccncc4)(N4CCN(C)CC4)CC3)n2)c(C)c1 (centres unmarked) [H_CC-031, N-[[1-[4-[[1-(4-methoxy-2,6-dimethylphenyl)sulfonyl-2-piperidinyl]methoxy]-2-pyrimidinyl]-4-(4-methyl-1-piperazinyl)-4-piperidinyl]methyl]-4-pyridinecarboxamide]	56
COc1cc(C)c(S(=O)(=O)N(C)CCOc2ccnc(N(C)CCN3CCC(Oc4ccncc4)CC3)n2)c(C)c1 [H_CC-089, 4-methoxy-N,2,6-trimethyl-N-[2-[2-[methyl-[2-(4-pyridin-4-yloxy-piperidin-1-yl)-ethyl]-amino]-pyrimidin-4-yl]oxy-ethyl]benzenesulfonic acid amide]	58
COc1cc(C)c(S(=O)(=O)N(C)C(COc2nccc(N3CCC(c4cccc(F)c4)(N4CCN(C)CC4)CC3)n2)c2ccccc2)c(C)c1 (centres unmarked) [G_CC-135, N-[2-[4-[4-(3-fluorophenyl)-4-(4-methyl-piperazin-1-yl)-piperidin-1-yl]-pyrimidin-2-yl]oxy-1-phenyl-ethyl]-4-methoxy-N,2,6-trimethyl-benzenesulfonic acid amide]	53
COc1cc(C)c(S(=O)(=O)N2CCCC(Oc3ccnc(N(C)CCN4CCC(c5ccccc5)(N(C)C)CC4)n3)C2)c(C)c1 (centres unmarked) [H_CC-065, 2-(4-dimethylamino-4-phenyl-piperidin-1-yl)-ethyl-[4-[1-[(4-methoxy-2,6-dimethyl-phenyl)sulfonyl]-piperidin-3-yl]oxy-pyrimidin-2-yl]-methyl-amine]	52
COc1cc(C)c(S(=O)(=O)N(C)CCOc2nccc(N3CCC(c4cccs4)(N(C)C)CC3)n2)c(C)c1 [G_CC-118, N-[2-[4-(4-dimethylamino-4-thiophen-2-yl-piperidin-1-yl)-pyrimidin-2-yl]oxy-ethyl]-4-methoxy-N,2,6-trimethyl-benzenesulfonic acid amide]	86
COc1cc(C)c(S(=O)(=O)N2CCCCC2COc2nccc(N3CCC4(CC3)CCN(c3ccc(F)cc3)C4=O)n2)c(C)c1 (centres unmarked) [G_CC-038, 3-(4-fluorophenyl)-8-[2-[[1-(4-methoxy-2,6-dimethylphenyl)sulfonyl-2-piperidinyl]methoxy]-4-pyrimidinyl]-3,8-diazaspiro[4.5]decan-4-one]	94
COc1cc(C)c(S(=O)(=O)N(C)C(COc2nccc(N3CCN(C(=O)c4cccnc4)CC3)n2)c2ccccc2)c(C)c1 (centres unmarked) [G_CC-064, 4-methoxy-N,2,6-trimethyl-N-[2-[[4-[4-[oxo-(3-pyridyl)methyl]-1-piperazinyl]-2-pyrimidinyl]oxy]-1-phenylethyl]benzenesulfonamide]	55
COc1cc(C)c(S(=O)(=O)N2CCCCC2COc2nccc(N3CCC(CCCN4CCCC4)(c4cccnc4)CC3)n2)c(C)c1 (centres unmarked) [G_CC-080, 2-[[1-[(4-methoxy-2,6-dimethyl-phenyl)sulfonyl]-piperidin-2-yl]-methoxy]-4-[4-pyridin-3-yl-4-(3-pyrrolidin-1-yl-propyl)-piperidin-1-yl]-pyrimidine]	103
COc1cc(C)c(S(=O)(=O)N2CCC[C@H]2COc2ccnc(N(C)CCN3CCC(c4ccccc4)(N(C)C)CC3)n2)c(C)c1 [H_CC-054, 2-(4-dimethylamino-4-phenyl-piperidin-1-yl)-ethyl-[4-[[(2S)-1-[(4-methoxy-2,6-dimethyl-phenyl)sulfonyl]-pyrrolidin-2-yl]-methoxy]-pyrimidin-2-yl]-methyl-amine]	83
COc1cc(C)c(S(=O)(=O)N2CCCC(Oc3ccnc(N(C)CCN4CCC(c5ccccc5)(N5CCCC5)CC4)n3)C2)c(C)c1 (centres unmarked) [H_CC-066, [4-[1-[(4-methoxy-2,6-dimethyl-phenyl)sulfonyl]-piperidin-3-yl]oxy-pyrimidin-2-yl]-methyl-[2-(4-phenyl-4-pyrrolidin-1-yl-piperidin-1-yl)-ethyl]amine]	56
COc1cc(C)c(S(=O)(=O)N2CCCCC2COc2ccnc(N3CCC4(CCN(Cc5ccccc5)C4)C3)n2)c(C)c1 (centres unmarked) [H_CC-021, 3-benzyl-7-[4-[[1-(4-methoxy-2,6-dimethylphenyl)sulfonyl-2-piperidinyl]methoxy]-2-pyrimidinyl]-3,7-diazaspiro[4.4]nonane]	62
